{"source": "patent US20030073730A1", "about": "“Use of amino-isoxazolidone compounds for treatment of memory impairment following traumatic brain injury” (G.D. Searle & Co., priority 1994, published 2003)", "key": {"[1]": {"target": "T1, NMDA receptor complex, [3H]TCP binding to synaptic plasma membranes (Rattus norvegicus, UniProt P35439)", "T1 construct": "Triton X-100 washed synaptic plasma membranes (SPM) prepared from rat forebrain; from tissue; host or cells: rat forebrain synaptic plasma membranes (male Sprague-Dawley, 30-45 days old), Triton X-100 washed", "test": "Assay B: TCP Modulation Assay (stimulation of [3H]TCP binding)", "conditions": "for effect on glycine dose-response of [3H]TCP binding: D-cycloserine 0-100 μM", "protocol": "[^3H]TCP binding was performed using Triton X-100 washed synaptic plasma membranes (SPM) prepared from rat forebrain (30-45 day old, male SpragueDawley; Sasco, St. Charles, Mo.) as described previously [J. W. Thomas, W. F. Hood, J. B. Monahan, P. C. Contreras and T. L. O'Donohue, Brain Res., 442, 396-398 (1988)]. […] The samples were then filtered through glass fiber filters (Schleicher and Schuell #32) which were pretreated with 0.05% (v/v) polyethylenimine. The filters were washed and the radioactivity quantitated by liquid scintillation spectrometry. […] The EC50 values for the stimulation of [^3H]TCP binding were determined using a four parameter logistic regression analysis."}, "[2]": {"system": "patients with post-traumatic memory impairment", "test": "Assay C: Post-Traumatic Memory Impairment Study (WMS and MAS)", "assay_type": "in vivo, human", "set-up": "MAS Visual Memory score, least-square mean corrected for baseline / MAS Visual Memory, mean change from baseline / WMS Logical Memory score, mean / WMS Visual Reproduction score, mean / MAS Visual Memory score, mean / MAS Short Term Memory score, mean / MAS Verbal Memory score, mean: scale not given here", "protocol": "The primary objective of this pilot study was to assess in patients with post-traumatic memory impairment: 1) The effect of a single 15 mg dose of cycloserine using the Wechsler Memory Scale (WMS) [D. Wechsler, Wechsler Memory Scale, Manual., Psychological Corporation, New York (1945)]; and 2) The effect of 5 multiple doses of 15 mg of cycloserine over 72 hours using the Memory Assessment Scales (MAS) [J. M Williams, The Memory Assessment Scales., Pyschological Assessment Resources, Odessa, Fla. (1991)]. The secondary objective of this study was to evaluate the safety of cycloserine in patients with traumatic brain injury.\nThe study was conducted by six investigators at six investigational sites in the United States. This was a multicenter, randomized, doubleblind, parallel group, placebo-controlled study in headtrauma patients who were experiencing significant memory disorder. Patients were randomized to receive placebo or 15 mg doses of cycloserine for a total of five equally spaced doses (morning and evening) over a 72-hour period. Safety and efficacy measurements were obtained at the screening and on Days 1 through 4 of the study. A sufficient number of patients were enrolled in the study to assure that 60 evaluable patients (30 in the cycloserine treatment group and 30 in the placebo treatment group) would complete the study.\nPatients considered for enrollment were to have sustained closed head injury (ICD-9-CM#800) and post-traumatic memory impairment established by clinical examination supported by the Hahnemann Orientation and Memory Examination (HOME) [J. M. Williams, In: C. J. Long, L. Ross and M. Mutchnick, eds. Traumatic Brain Injury, Plenum, N.Y. (1990)]. The Anterograde Amnesia score was to be between 0 and 21 inclusive and the patient was to have sufficient cognitive recovery to complete the Hahnemann Memory Screening Test (MST) with a score of at least 9 [J. M. Williams, Ibid.]. Patients were to be at least 18 years of age, weighing between 40 and 100 kg, and female patients could not be at risk of pregnancy. Patients were to have a stable medical condition following the traumatic injury and be judged by the investigator to have adequate nutritional status. [Patients could have other traumatic injuries provided they were under treatment and there was no clinically significant infection or general sepsis.]\nCriteria for exclusion from the study included current or history of significant systemic disorder, brain disorder, or any neurological disorder with cognitive implications other than traumatic brain injury (e.g., brain tumor). Also excluded were patients with current or history of diagnosed epilepsy or documented convulsions, or clinically significant abnormalities of thyroid function, folic acid or B12. Clinically significant cardiovascular, renal, pulmonary, hepatic, gastrointestinal, infectious or hematological illness could preclude patient participation in the study (judgment of the Investigator). Concomitant medication, or medication given within seven days prior to the start of the study could preclude patient participation in the study (judgment of the Investigator and/or Clinical Monitor). Inability to follow study procedures, poor comprehension of study language, uncorrectable loss of hearing or eyesight which would interfere with study participation excluded patients from the study. Patients who had received an acridine derivative within 90 days prior to enrollment or another investigational drug within 30 days enrollment or who were known to have a hypersensitivity to cycloserine or related compounds were also excluded. This study also excluded patients taking or expected to take Hydergine, cerebral vasodilators, nootropics, choline, lecithin or amino acids. Clinically significant laboratory values outside the normal range or previous admission to the study excluded patients from participation in the study.\nAll study medication was provided by G. D. Searle & Co., Skokie, Ill. […]"}, "[3]": {"system": "normal young and elderly human volunteers", "conditions": "single oral doses of 5 and 15 mg; cited from earlier work"}, "[4]": {"system": "elderly population", "conditions": "absence of scopolamine, single oral doses of 5 and 15 mg; cited from earlier work"}, "[5]": {"system": "mentally disturbed patients", "conditions": "500 mg per day; cited from earlier work"}}}
{"compound": "NC1CONC1=O", "note": "(single isomer, unassigned) [D-cycloserine, 4-amino-3-isoxazolidone]", "values": [{"measurement": "effect on glycine dose-response of [3H]TCP binding", "setting": "[1]; glycine concentrations 0.1-15 μM", "result": "rightward shift in the dose-response curve"}, {"measurement": "effect on glycine dose-response of [3H]TCP binding", "setting": "[1]; glycine concentrations below 0.1 μM", "result": "potentiated the glycine stimulation"}, {"measurement": "effect on glycine stimulation of [3H]TCP binding", "setting": "[1]; in the presence of glycine 0.1-0.6 μM", "result": "reduces the maximal level of glycine stimulation"}, {"measurement": "MAS Short Term Memory score, mean", "setting": "[2]; Baseline", "result": 81.7}, {"measurement": "MAS Verbal Memory score, mean", "setting": "[2]; Baseline", "result": 78.2}, {"measurement": "MAS Visual Memory score, mean", "setting": "[2]; Baseline", "result": 77.2}, {"measurement": "WMS Logical Memory score, mean", "setting": "[2]; Baseline, prior to first dose", "result": 8.88}, {"measurement": "WMS Visual Reproduction score, mean", "setting": "[2]; Baseline, prior to first dose", "result": 8.70}, {"measurement": "WMS Logical Memory score, mean", "setting": "[2]; Day 2, after one 15 mg dose", "result": 8.24}, {"measurement": "WMS Visual Reproduction score, mean", "setting": "[2]; Day 2, after one 15 mg dose", "result": 8.42}, {"measurement": "WMS Visual Reproduction score corrected for baseline versus placebo", "setting": "[2]; Day 2, one dose, p=0.59", "result": "did not differ significantly"}, {"measurement": "WMS Logical Memory score corrected for baseline versus placebo", "setting": "[2]; Day 2, one dose, p=0.72", "result": "did not differ significantly"}, {"measurement": "MAS Short Term Memory score, mean", "setting": "[2]; Day 4, after five 15 mg doses", "result": 85.9}, {"measurement": "MAS Verbal Memory score, mean", "setting": "[2]; Day 4, after five 15 mg doses", "result": 75.8}, {"measurement": "MAS Visual Memory score, mean", "setting": "[2]; Day 4, after five 15 mg doses", "result": 85.5}, {"measurement": "MAS Visual Memory score, least-square mean corrected for baseline", "setting": "[2]; Day 4, five 15 mg doses, placebo 78.7", "result": 87.5}, {"measurement": "MAS Visual Memory, mean change from baseline", "setting": "[2]; Day 4, five 15 mg doses, placebo −1.50", "result": 8.54}, {"measurement": "MAS Visual Memory score versus placebo", "setting": "[2]; Day 4, p=0.023", "result": "significantly higher"}, {"measurement": "MAS Verbal Memory versus placebo", "setting": "[2]; Day 4, p=0.31", "result": "not significantly different"}, {"measurement": "MAS Short Term Memory versus placebo", "setting": "[2]; Day 4, p=0.72", "result": "not significantly different"}, {"measurement": "effect on scopolamine-induced memory deficits", "setting": "[3]", "result": "can ameliorate some memory deficits induced by scopolamine"}, {"measurement": "effect on cognitive parameters", "setting": "[4]", "result": "significant positive effects on the cognitive parameters"}, {"measurement": "clinical response in mental disorders", "setting": "[5]", "result": "improvements in depression, insomnia, anexoria or tension were found for some patients"}]}
{"compound": "NCC(=O)O", "note": "[Glycine]", "values": [{"measurement": "maximum specific [3H]TCP binding", "setting": "[1]; 0.6 μM glycine, basal binding 2583±381 DPM", "result": "4712±779", "unit": "DPM"}]}
{"compound": "c1csc(C2(N3CCCCC3)CCCCC2)c1", "note": "[[^3H]TCP]", "values": [{"measurement": "Kd", "setting": "[1]; basal conditions", "result": 44, "unit": "nM"}]}
